Laboratory results taken from patent publication US20250136610A1, “CRYSTALLINE FORMS OF TRILACICLIB AND TRILACICLIB SALTS” (TEVA PHARMACEUTICALS INTERNATIONAL GMBH, priority 2022, published 2025).
Counter-ions that a name gives are not always drawn.

Key:
Assay type in all cases: physicochemical
[1] = Grinding experiments (strong grinding and solvent drop grinding, XRPD); conditions: 2 minutes
Experimental: (§1) X-ray diffraction was performed on X-Ray powder diffractometer: Bruker D8 Advance; CuKα radiation (λ=1.5418 Å); Lynx eye detector; laboratory temperature 22-25° C.; PMMA specimen holder ring with silicon low background. Prior to analysis, the samples were gently ground by means of mortar and pestle in order to obtain a fine powder. The ground sample was adjusted into a cavity of the sample holder and the surface of the sample was smoothed by means of a cover glass.
(§2) • Scan range: 2-40 degrees 2-theta; • Scan mode: continuous; • Step size: 0.05 degrees; • Time per step: 0.5 s; • Sample spin: 30 rpm; • Sample holder: PMMA specimen holder ring with silicon low background. • All X-Ray Powder Diffraction peak values are calibrated with regard to standard silicon spiking in the sample. ssNMR Method:
Samples of Trilaciclib citrate Form TCT3 were subjected to strong grinding, and to solvent drop grinding in isopropanol, ethanol and water. Grinding was carried out on the samples alone, or in the presence of ethanol or water. In these experiments, about 20 mg of the sample is placed in a mortar and ground with a pestle for 2 minutes. The solvent, when used, as added to the crystalline material before grinding, in a volume of 10 microliters.

[2] = Storage stability at different relative humidities and temperatures, months (XRPD)
Experimental: as §1, §2
Samples of Trilaciclib citrate Form TCT3 were subjected to conditions of different relative humidities at different temperatures. XRPD analysis was performed on the samples after 2 months.
Form TCT3 of Trilaciclib citrate was also found to be stable for at least 2 months at 2-8° C. Moreover, Form TCT3 is stable for at least 3 months at room temperature and humidity.

[3] = Thermal stability (heating up to 100° C., XRPD); conditions: heating 100° C., 30 minutes
Experimental: as §1, §2
A sample of Trilaciclib citrate Form TCT3 was subjected to heating up to 100° C. for 30 minutes.

[4] = Stability under all tested stress conditions (summary statement); conditions: strong grinding, pressure of 2 tons, up to 100% RH for 7 days, up to 100° C.

CN1CCN(c2ccc(Nc3ncc4cc5n(c4n3)C3(CCCCC3)CNC5=O)nc2)CC1 [Trilaciclib citrate Form TCT3, Trilaciclib citrate salt]
XRPD analysis results ([1]; solvent-drop grinding (ethanol), 10 microliters): No polymorphic conversion
XRPD analysis results ([1]; solvent-drop grinding (isopropanol), 10 microliters): No polymorphic conversion
XRPD analysis results ([1]; solvent-drop grinding (water), 10 microliters): No polymorphic conversion
XRPD analysis results ([1]; strong grinding, no solvent): No polymorphic conversion
time for which the form is stable ([2]; at 2-8° C.): at least 2 months
time for which the form is stable ([2]; at room temperature and humidity): at least 3 months
Result (XRPD analysis) [3]: No polymorphic conversion
stability under stress conditions [4]: stable under all tested stress conditions
